In PubChem BioAssay (NCI):
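Dose response: 5 concentrations. Exposure: 48 h. Format: 96-well plates. Endpoint: linear interpolation; highest concentration if not reached. The concentration for 50% growth inhibition is given as GI50. At the TGI there is no net growth.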

Tests used:
Experiment in all cases: inhibition of tumour cell growth, NCI panel, 48 h
ACHN renal = test system: ACHN renal
SK-MEL-5 melanoma = test system: SK-MEL-5 melanoma
UACC-62 melanoma = test system: UACC-62 melanoma
RPMI-8226 leukemia = test system: RPMI-8226 leukemia
SK-MEL-28 melanoma = test system: SK-MEL-28 melanoma
SN12C renal = test system: SN12C renal
MALME-3M melanoma = test system: MALME-3M melanoma
NCI/ADR-RES ovarian = test system: NCI/ADR-RES ovarian
SNB-75 CNS = test system: SNB-75 CNS
SF-295 CNS = test system: SF-295 CNS
SF-268 CNS = test system: SF-268 CNS
RXF 393 renal = test system: RXF 393 renal
SF-539 CNS = test system: SF-539 CNS
UO-31 renal = test system: UO-31 renal
OVCAR-5 ovarian = test system: OVCAR-5 ovarian
HS 578T breast = test system: HS 578T breast

In the case of `Cc1ccc(/C=C/c2n(Cc3ccc4ccccc4c3)c3ccccc3[n+]2Cc2ccc3ccccc3c2)cc1`, the GI50 (ACHN renal) is reported as 782 nM, the TGI (ACHN renal) is reported as 2030 nM and the GI50 (SK-MEL-5 melanoma) is reported as 905 nM. The TGI (SK-MEL-5 melanoma) was 2110 nM, the GI50 (UACC-62 melanoma) was 1270 nM and the TGI (UACC-62 melanoma) was 2560 nM. It also gave a GI50 (RPMI-8226 leukemia) of 331 nM, a TGI (RPMI-8226 leukemia) of 2300 nM and a GI50 (SK-MEL-28 melanoma) of 726 nM. The TGI (SK-MEL-28 melanoma) was 2010 nM, the GI50 (SN12C renal) was 1450 nM and the TGI (SN12C renal) was 2790 nM. For the same molecule, the GI50 (MALME-3M melanoma) was 465 nM, the TGI (MALME-3M melanoma) was 1740 nM and the GI50 (NCI/ADR-RES ovarian) was 1900 nM. The TGI (NCI/ADR-RES ovarian) was 4560 nM, the GI50 (SNB-75 CNS) was 729 nM and the TGI (SNB-75 CNS) was 2150 nM. For the same molecule, the GI50 (SF-295 CNS) was 399 nM, the TGI (SF-295 CNS) was 1660 nM and the GI50 (SF-268 CNS) was 1500 nM. The TGI (SF-268 CNS) was 3880 nM, the GI50 (RXF 393 renal) was 325 nM and the TGI (RXF 393 renal) was 1390 nM. It also gave a GI50 (SF-539 CNS) of 475 nM, a TGI (SF-539 CNS) of 1710 nM and a GI50 (UO-31 renal) of 1440 nM. It also gave a TGI (UO-31 renal) of 2770 nM, a GI50 (OVCAR-5 ovarian) of 1100 nM and a TGI (OVCAR-5 ovarian) of 2300 nM. It also gave a GI50 (HS 578T breast) of 382 nM and a TGI (HS 578T breast) of 1740 nM.
